Here are results for 23 sequences from patent publication US9360486B2, “Allergen fragments” (Biomay AG, priority 2007, dated 2016).

In this experiment the test system is Amb a 1-specific T cell lines (TCL). In words: T cell epitope mapping of Amb a 1.3: proliferation (3H-thymidine uptake) of TCL stimulated with synthetic peptides. The experiment is classed as cell-based, human. The conditions noted are these: for No. positive patients SI > 3 / No. positive patients SI > 5 / % (positive patients SI > 3) / % (positive patients SI > 5): TCL from 48 ragweed pollen-allergic patients, peptide 5 μg/ml; for No. positive patients SI > 3 / No. positive patients SI > 5: 3H-thymidine uptake after 48 hrs; for No. positive patients SI > 3 / % (positive patients SI > 3): stimulation index > 3; for No. positive patients SI > 5 / % (positive patients SI > 5): stimulation index > 5; for T cell activating region recognized by % of patients: classes of prevalence referring to SI>5, 48 TCL. The text has this:
The T cell response to Amb a 1 was characterized in detail using the established in vitro culture system (Jahn-Schmid et al., J. Immunol. 169: 6005-11, 2002; Jahn-Schmid et al., J. Allergy Clin. Immunol., 115: 399-404, 2005). In total, 85 clinically well-defined patients (75 from Vienna/10 from Milano) with typical case history, positive skin prick test and CAP/RAST tests for ragweed extract were included.
Peripheral blood mononuclear cells (PBMC) were isolated from heparinized blood of allergic patients by Ficoll density gradient centrifugation. To generate allergen-specific T cell lines (TCL) and T cell clones (TCC), 1.5×10^6 PBMC were stimulated with optimal doses of ragweed or mugwort extract (4 μg/ml) or rAmb a 1.3 (10 μg/ml) in 24-well flat-bottomed culture plates (Costar, USA). After 5 days human rIL-2 (10 U/ml, Boehringer, Mannheim, Germany) were added and cultures were continued for additional 7 days. Then, T cell blasts were isolated by density centrifugation. The majority of T cell blasts was further expanded with IL-2 and irradiated PBMC. A small number of T cell blasts were used to establish monoclonal T cell cultures by limiting dilution: 0.3 T cells/well were seeded into 96 well round bottom plates (Nunclone) in the presence of 2×10^5 irradiated (60 Gy) PBMC, 0.25% v/v PHA (Gibco, USA) and rIL-2 (4 U/well) in the medium mentioned above. After 14-21 days, growing microcultures were expanded at weekly intervals with irradiated PBMC and rIL-2. The specificity of TCC was assessed in proliferation assays using irradiated allogeneic or HLA-matched PBMC or irradiated EBV-transformed allogeneic B-cells and 5 μg/ml Amb a 1.3. After 48 hours, cellular uptake of tritiated (^3H)-thymidine was performed to measure proliferation in counts per minute (cpm). When the stimulation index (SI; ratio between cpm obtained in cultures containing TCC plus autologous APC plus antigen, and cpm obtained in cultures containing TCC and APC alone) was >10, responses were considered as positive. Allergen-specific TCC were expanded by alternating turns of stimulation with autologous irradiated APC and allergen or with allogeneic feeder cells and rIL-2.
Amb a 1-specific TCL and TCC were used to identify T cell epitopes of Amb a 1.3. T cell cultures were stimulated with a panel of 121 synthetic 12-mer peptides and one 13-mer representing the C-terminal peptide of Amb a 1.3 (Pepset, Biotrend, Germany). Peptides had been synthesized according to the Amb a 1.3 amino acid sequence and overlapped for 9 amino acid residues with the neighbouring peptides (Table 1). Peptides were used at a concentration of 5 μg/ml for stimulation and proliferation of T cell cultures was determined after 48 hrs by ^3H-thymidine-uptake. Because of the frequently observed high background caused by auto-reactivity in TCL, the mean of the cpm observed with the ten least stimulating peptides (none of the peptides was toxic) was used as negative control in calculations of SI. Throughout this manuscript, a peptide comprised one T cell epitope when the stimulation index was at least 3.0.
T cell epitope mapping of Amb a 1.3 was performed evaluating 48 TCL from different patients ([…]), which had been initiated with ragweed extract (containing the natural allergen) or rAmb a 1.3 (Table 2). TCL induced with either ragweed extract or rAmb a 1.3 from the same individual recognized similar T cell epitopes (Table 2; FIG. 7). […] Therefore, their data were combined for further analysis (Table 3). Typical for many inhalant allergens, multiple T cell activating regions were detected in Amb a 1.3. The number of peptides recognized by T cells from a single individual ranged from 2 to maximum 60 peptides with a mean of 17.8 peptides (median=16/for SI>3; resp. 0-36/11.9/12 for SI>5) (see Table 3). In total, 26 relevant (i.e. recognized by ≧10% of patients studied) T cell activating regions comprising 12-18 aa were identified. […]

As to “ISNCKFTQQSKA (Amb a 1 fragment) [Peptide 70]”, the “No. positive patients SI > 3” value stood at 1, the “No. positive patients SI > 5” value was 1, the “% (positive patients SI > 3)” value is given as 2.1% and the “% (positive patients SI > 5)” value is reported as 2.1%.

Take “KADWENNRQALA (Amb a 1 fragment) [Peptide 12]”: the “reactivity with T cells isolated from allergic individuals” value (“reactivity with T cells isolated” below) is given as “reactivity with T cells”, the “No. positive patients SI > 3” value is given as 5, the “No. positive patients SI > 5” value is 1 and the “% (positive patients SI > 3)” value worked out at 10.4%. For the same sequence, the “% (positive patients SI > 5)” value is listed as 2.1%.

Take “KGMLATVAFNMF (Amb a 1 fragment) [Peptide 78]”: the “reactivity with T cells isolated” value is “reactivity with T cells”, the “No. positive patients SI > 3” value is recorded as 11, the “No. positive patients SI > 5” value was 6 and the “% (positive patients SI > 3)” value is 22.9%. Further, the “% (positive patients SI > 5)” value stood at 12.5% and the “T cell activating region recognized by % of patients” value was “recognized by 12.5%”.

As for “KNDMVINLNQEL (Amb a 1 fragment) [Peptide 33]”, the “reactivity with T cells isolated” value is listed as “reactivity with T cells”, the “No. positive patients SI > 3” value was determined as 15, the “No. positive patients SI > 5” value is 13 and the “% (positive patients SI > 3)” value was determined as 31.3%. For the same sequence, the “% (positive patients SI > 5)” value turned out to be 27.1%.

“KNDMVINLNQELVVN (Amb a 1 fragment) [Peptide 33-34]”: the “reactivity with T cells isolated” value is “reactivity with T cells” and the “T cell activating region recognized by % of patients” value is “recognized by 27.1%”.

Regarding “KNIIIHNINIHD (Amb a 1 fragment) [Peptide 46]”, the “reactivity with T cells isolated” value was “reactivity with T cells”, the “No. positive patients SI > 3” value is 10, the “No. positive patients SI > 5” value worked out at 8 and the “% (positive patients SI > 3)” value was 20.8%. For the same sequence, the “% (positive patients SI > 5)” value stood at 16.7%.

As for “KNIIIHNINIHDVKVLPG (Amb a 1 fragment) [Peptide 46-48]”, the “reactivity with T cells isolated” value is “reactivity with T cells” and the “T cell activating region recognized by % of patients” value is given as “recognized by 20.8%”.

“KNVLARTGTGAA (Amb a 1 fragment) [Peptide 100]”: the “reactivity with T cells isolated” value was “reactivity with T cells”, the “No. positive patients SI > 3” value is 6, the “No. positive patients SI > 5” value was determined as 5 and the “% (positive patients SI > 3)” value was determined as 12.5%. Besides, the “% (positive patients SI > 5)” value amounted to 10.4% and the “T cell activating region recognized by % of patients” value is “recognized by 10.4%”.

Regarding “KSNDGPPILRQA (Amb a 1 fragment) [Peptide 53]”, the “reactivity with T cells isolated” value is “reactivity with T cells”, the “No. positive patients SI > 3” value was determined as 5, the “No. positive patients SI > 5” value worked out at 0 and the “% (positive patients SI > 3)” value was found to be 10.4%. Also, the “% (positive patients SI > 5)” value worked out at 0.0%.

Turning to “LARTGTGAAESM (Amb a 1 fragment) [Peptide 101]”, the “reactivity with T cells isolated” value is recorded as “reactivity with T cells”, the “No. positive patients SI > 3” value turned out to be 10, the “No. positive patients SI > 5” value worked out at 7 and the “% (positive patients SI > 3)” value is 20.8%. In addition, the “% (positive patients SI > 5)” value is given as 14.6%.

Consider “LARTGTGAAESMAWN (Amb a 1 fragment) [101/102]”, for which the “reactivity with T cells isolated” value was “reactivity with T cells” and the “T cell activating region recognized by % of patients” value is given as “recognized by 14.6%”.

Turning to “LATVAFNMFTDN (Amb a 1 fragment) [Peptide 79]”, the “reactivity with T cells isolated” value was “reactivity with T cells”, the “No. positive patients SI > 3” value is listed as 5, the “No. positive patients SI > 5” value came to 2 and the “% (positive patients SI > 3)” value was found to be 10.4%. Further, the “% (positive patients SI > 5)” value worked out at 4.2%.

Turning to “LCQGNRFLAPDD (Amb a 1 fragment) [Peptide 95]”, the “No. positive patients SI > 3” value was 0, the “No. positive patients SI > 5” value was 0, the “% (positive patients SI > 3)” value was 0.0% and the “% (positive patients SI > 5)” value was 0.0%.

On to “LDDDVANPKEGT (Amb a 1 fragment) [Peptide 24]”, for which the “No. positive patients SI > 3” value is listed as 2, the “No. positive patients SI > 5” value is on record as 1, the “% (positive patients SI > 3)” value worked out at 4.2% and the “% (positive patients SI > 5)” value is given as 2.1%.

For the sequence “LLENGAIFVTSG (Amb a 1 fragment) [Peptide 108]”, the “reactivity with T cells isolated” value was “reactivity with T cells”, the “No. positive patients SI > 3” value was 27, the “No. positive patients SI > 5” value is 24 and the “% (positive patients SI > 3)” value is reported as 56.3%. The “% (positive patients SI > 5)” value was determined as 50.0%.

On to “LPGGMIKSNDGP (Amb a 1 fragment) [Peptide 51]”, for which the “reactivity with T cells isolated” value is given as “reactivity with T cells”, the “No. positive patients SI > 3” value is recorded as 6, the “No. positive patients SI > 5” value is reported as 3 and the “% (positive patients SI > 3)” value is on record as 12.5%. The “% (positive patients SI > 5)” value was 6.3%.

As to “LRFAAAQNRPLW (Amb a 1 fragment) [Peptide 28]”, the “reactivity with T cells isolated” value is given as “reactivity with T cells”, the “No. positive patients SI > 3” value came to 15, the “No. positive patients SI > 5” value is on record as 11 and the “% (positive patients SI > 3)” value was found to be 31.3%. For the same sequence, the “% (positive patients SI > 5)” value is on record as 22.9%.

As to “LTLMNVKNIIIH (Amb a 1 fragment) [Peptide 44]”, the “reactivity with T cells isolated” value is “reactivity with T cells”, the “No. positive patients SI > 3” value is 15, the “No. positive patients SI > 5” value amounted to 9 and the “% (positive patients SI > 3)” value turned out to be 31.3%. For the same sequence, the “% (positive patients SI > 5)” value amounted to 18.8% and the “T cell activating region recognized by % of patients” value is reported as “recognized by 18.8%”.

As for “LTSSAGVLSCRP (Amb a 1 fragment) [Peptide 120]”, the “reactivity with T cells isolated” value is “reactivity with T cells”, the “No. positive patients SI > 3” value turned out to be 14, the “No. positive patients SI > 5” value came to 9 and the “% (positive patients SI > 3)” value was 29.2%. The “% (positive patients SI > 5)” value stood at 18.8%.

On to “LVDVTLGSTHVT (Amb a 1 fragment) [Peptide 66]”, for which the “No. positive patients SI > 3” value is listed as 4, the “No. positive patients SI > 5” value is 4, the “% (positive patients SI > 3)” value was determined as 8.3% and the “% (positive patients SI > 5)” value is reported as 8.3%.

“MIPAEPGEAAIK (Amb a 1 fragment) [Peptide 116]”: the “No. positive patients SI > 3” value is 6, the “No. positive patients SI > 5” value is listed as 4, the “% (positive patients SI > 3)” value was 12.5% and the “% (positive patients SI > 5)” value turned out to be 8.3%.

On to “MNVKNIIIHNIN (Amb a 1 fragment) [Peptide 45]”, for which the “No. positive patients SI > 3” value is on record as 2, the “No. positive patients SI > 5” value worked out at 0, the “% (positive patients SI > 3)” value is given as 4.2% and the “% (positive patients SI > 5)” value came to 0.0%.

“MVINLNQELVVN (Amb a 1 fragment) [Peptide 34]”: the “No. positive patients SI > 3” value was 2, the “No. positive patients SI > 5” value is on record as 2, the “% (positive patients SI > 3)” value is given as 4.2% and the “% (positive patients SI > 5)” value is reported as 4.2%.
